Each structure is given as a SMILES string.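 Grown in 96-well plates, cells were treated for 48 hours with each compound at five concentrations. Insufficient inhibition: endpoint recorded as highest concentration tested. GI50 is the concentration that inhibits growth by half. At the TGI there is no net growth.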

The first test relates to SK-MEL-5 melanoma. As to the kind of experiment: growth of human tumour cells (NCI), 48 h.
For `NC(=O)c1sc(-n2cnc3ccccc32)cc1OCc1ccccc1Br`, the GI50 is 4.75 µM and the TGI was above 25 µM.
With `C#Cc1ccc(-n2c(/C=C/c3ccc(C(F)(F)F)cc3)nc3ncccc3c2=O)cc1`, the GI50 was 1.49 µM and the TGI is 2.87 µM.
The compound `Cc1cc(C)nc(NS(=O)(=O)c2ccc(NC(=O)c3ccc(Cl)c4c(Nc5ccc(S(=O)(=O)Nc6nc(C)cc(C)n6)cc5)c5ccccc5nc34)cc2)n1` had a TGI of 73.1 µM.
In the case of `CCCCCN(CCCCC)CCCNc1c2c(nc3ccc(Cl)cc13)CCCC2`, the GI50 is 1.82 µM and the TGI is 3.34 µM.

For the next test, the system named is SW-620 colon. As to the kind of experiment: growth of human tumour cells (NCI), 48 h.
Consider `CC1(C)CCc2c(c3c(c4c(=O)c(O)c(-c5ccc(O)cc5)oc24)OC(C)(C)CC3)O1`, for which the GI50 is above 100 µM and the TGI is above 100 µM.
In turn, `CC(C)=CC(=O)C1c2cccc(O)c2C(=O)c2c(O)cc(C)cc21` (stereo not drawn) came in with a TGI of 10.2 µM.
The same measure, in the same setting: next, `O=C(O)CCc1coc2ccc(O)cc12`: above 100 µM.
Turning to `O=C(Nc1ccccc1)NS(=O)(=O)c1ccc(-n2nc3c(c2-c2cccs2)Cc2ccccc2-3)cc1`, the GI50 is 22.9 µM and the TGI came out at 51.2 µM.
In the case of `CCCCCN(CCCCC)CC(O)c1cc(C)c2ccc3cc(C(C)C)ccc3c2c1` (stereo not drawn), the GI50 was 1.81 µM and the TGI was found to be 3.61 µM.
As for `COC(=O)CC1CCN(C#N)CC1CC[N+](=O)[O-]` (stereo not drawn), the TGI was above 100 µM.
In the case of `COc1ccc(-c2nc3sccn3c2/C(N)=N/C(=N)N)cc1OC`, the GI50 is 28.4 µM and the TGI amounted to 72.1 µM.
The like results for `CC1=C(C(=O)Nc2ccc(Cl)c(Cl)c2)C(c2cccc(Oc3ccccc3)c2)NC(=S)N1` (stereo not drawn) were, in that order, 8.23 µM and 15 µM.
`O=C(N/C(=C\c1ccc(/C=C(\NC(=O)c2ccccc2)c2nc3cc([N+](=O)[O-])ccc3[nH]2)cc1)c1nc2cc([N+](=O)[O-])ccc2[nH]1)c1ccccc1` had a TGI above 100 µM.
Same read-out and setting: next, `COc1cc2c(cc1OC)-c1c3cc(O)ccc3nn[n+]1CC2`: above 100 µM.
In the case of `Cc1ccc(NC2=C(Cl)C(=O)N(Cc3ccccc3)C2=O)cc1O`, the GI50 is 39.2 µM and the TGI was above 100 µM.
In turn, `CCN(CCO)CC1CCCC2CCCCC21` (stereo not drawn) showed a TGI above 100 µM.
On the same count and under the same terms, then `N#CC(c1ccc(Cl)cc1)c1cccc(C(C#N)c2ccc(Cl)cc2)n1` (stereo not drawn), with above 100 µM.
For `CCCCOC(=O)C1OC(O[C@H]2CCC3(C)C(CCC4(C)C3CC=C3C5CC(C)(C)CCC5(C(=O)O)CC[C@]34C)C2(C)C)C(OC2OC(CO)C(O)C(O)C2O)C(OC2OC(CO)C(O)C(O)C2O)C1O` (stereo partly drawn), the GI50 is 36.6 µM and the TGI is above 100 µM.
Regarding `COc1cc(Cc2cnc(/N=C3\C(=O)N(CN4CCN(c5c(F)cc6c(=O)c(C(=O)O)cn(C7CC7)c6c5OC)CC4C)c4ccc(F)cc43)nc2N)cc(OC)c1OC` (stereo not drawn), the GI50 was 5.28 µM and the TGI was 23.3 µM.
As for `N#CC1C(C#N)C2(c3ccccc3)C(c3ccccc3)=NN(c3ccccc3)CC12` (stereo not drawn), the TGI was above 100 µM.
As for `NC(=O)c1sc(-n2cnc3ccccc32)cc1OCc1ccccc1Br`, the GI50 was 1.17 µM and the TGI is above 25 µM.
Regarding `CN(C)C(=N)c1ccccc1`, the TGI was above 100 µM.
As for `C#Cc1ccc(-n2c(/C=C/c3ccc(C(F)(F)F)cc3)nc3ncccc3c2=O)cc1`, the GI50 is 1.92 µM and the TGI was determined as 3.76 µM.
On to `Cc1cc(C)nc(NS(=O)(=O)c2ccc(NC(=O)c3ccc(Cl)c4c(Nc5ccc(S(=O)(=O)Nc6nc(C)cc(C)n6)cc5)c5ccccc5nc34)cc2)n1`, for which the TGI is above 100 µM.
For the compound `CCCCCN(CCCCC)CCCNc1c2c(nc3ccc(Cl)cc13)CCCC2`, the GI50 is 1.97 µM and the TGI was 8.55 µM.

The subject of another test is UACC-62 melanoma. Briefly: growth of human tumour cells (NCI), 48 h.
As to `CC1(C)CCc2c(c3c(c4c(=O)c(O)c(-c5ccc(O)cc5)oc24)OC(C)(C)CC3)O1`, the GI50 was above 100 µM and the TGI is above 100 µM.
`O=C(O)CCc1coc2ccc(O)cc12` showed a TGI above 100 µM.
With `O=C(Nc1ccccc1)NS(=O)(=O)c1ccc(-n2nc3c(c2-c2cccs2)Cc2ccccc2-3)cc1`, the GI50 is 15.8 µM and the TGI was found to be 35 µM.
As for `CCCCCN(CCCCC)CC(O)c1cc(C)c2ccc3cc(C(C)C)ccc3c2c1` (stereo not drawn), the GI50 was 1.71 µM and the TGI amounted to 3.47 µM.
`COC(=O)CC1CCN(C#N)CC1CC[N+](=O)[O-]` (stereo not drawn) came in with a TGI above 100 µM.
Turning to `COc1ccc(-c2nc3sccn3c2/C(N)=N/C(=N)N)cc1OC`, the GI50 is 66 µM and the TGI is above 100 µM.
For `CC1=C(C(=O)Nc2ccc(Cl)c(Cl)c2)C(c2cccc(Oc3ccccc3)c2)NC(=S)N1` (stereo not drawn), the GI50 is 7.81 µM and the TGI came out at 14.6 µM.
For the compound `O=C(N/C(=C\c1ccc(/C=C(\NC(=O)c2ccccc2)c2nc3cc([N+](=O)[O-])ccc3[nH]2)cc1)c1nc2cc([N+](=O)[O-])ccc2[nH]1)c1ccccc1`, the TGI was above 100 µM.
`COc1cc2c(cc1OC)-c1c3cc(O)ccc3nn[n+]1CC2` came in with a TGI above 100 µM.
Take `Cc1ccc(NC2=C(Cl)C(=O)N(Cc3ccccc3)C2=O)cc1O`: the GI50 was 24.4 µM and the TGI was above 100 µM.
Take `CCN(CCO)CC1CCCC2CCCCC21` (stereo not drawn): the TGI is above 100 µM.
The same measure, in the same setting: then `N#CC(c1ccc(Cl)cc1)c1cccc(C(C#N)c2ccc(Cl)cc2)n1` (stereo not drawn), with above 100 µM.
As for `CCCCOC(=O)C1OC(O[C@H]2CCC3(C)C(CCC4(C)C3CC=C3C5CC(C)(C)CCC5(C(=O)O)CC[C@]34C)C2(C)C)C(OC2OC(CO)C(O)C(O)C2O)C(OC2OC(CO)C(O)C(O)C2O)C1O` (stereo partly drawn), the GI50 is 20.9 µM and the TGI was determined as 36.1 µM.
The like results for `COc1cc(Cc2cnc(/N=C3\C(=O)N(CN4CCN(c5c(F)cc6c(=O)c(C(=O)O)cn(C7CC7)c6c5OC)CC4C)c4ccc(F)cc43)nc2N)cc(OC)c1OC` (stereo not drawn) were, in that order, 12.6 µM and 26 µM.
As for `N#CC1C(C#N)C2(c3ccccc3)C(c3ccccc3)=NN(c3ccccc3)CC12` (stereo not drawn), the TGI is above 100 µM.
On to `NC(=O)c1sc(-n2cnc3ccccc32)cc1OCc1ccccc1Br`, for which the GI50 is 5.88 µM and the TGI was above 25 µM.
The like results for `C#Cc1ccc(-n2c(/C=C/c3ccc(C(F)(F)F)cc3)nc3ncccc3c2=O)cc1` were, in that order, 1.62 µM and 3.61 µM.
For `CCCCCN(CCCCC)CCCNc1c2c(nc3ccc(Cl)cc13)CCCC2`, in that order: 4.36 µM and 16.8 µM.

These data come from PubChem BioAssay (NCI).
